Laboratory results as given in article PMC12257510, “Structure-Guided Design of a KMT9 Inhibitor Prodrug with Cellular Activity” (Journal of Medicinal Chemistry, 2025).

Experiments:
[1] = target: T1, KMT9a (Homo sapiens, UniProt Q9Y5N5); experiment: CETSA in Caco-2 cells, KMT9; format: cell-based; parameters: of endogenous KMT9 upon treatment with; endogenous in cells; host or cells: Caco-2
T1 sequence (Q9Y5N5 1-214): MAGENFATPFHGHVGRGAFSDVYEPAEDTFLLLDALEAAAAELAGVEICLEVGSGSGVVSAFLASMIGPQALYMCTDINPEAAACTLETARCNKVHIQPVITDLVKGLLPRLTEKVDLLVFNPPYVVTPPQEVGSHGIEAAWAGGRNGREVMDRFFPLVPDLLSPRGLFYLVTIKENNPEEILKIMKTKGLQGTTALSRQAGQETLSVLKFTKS
T1 sequence (Q9UI30 1-125 partner): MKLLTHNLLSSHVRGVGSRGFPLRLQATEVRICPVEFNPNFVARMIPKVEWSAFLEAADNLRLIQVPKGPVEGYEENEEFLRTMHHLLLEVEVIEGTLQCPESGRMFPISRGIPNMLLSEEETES
Procedure: (§1) For whole cell CETSA, the cells were incubated with 10/15 μM of compound 7b/8/8-N for 18 h. Then, cells were washed with cell culture medium, detached from the surface using trypsin, washed with PBS and the number of cells was determined. Cell concentration was adjusted to 3.6 × 10^7 cells/mL using in PBS with Complete (w/o EDTA, Roche) protease inhibitor. Then, cells were frozen in liquid nitrogen and thawed at 25 °C three times, before being divided in 16 aliquots. Each aliquot was heated to a defined temperature between 40 and 70 °C in a PCR cycler (16 well gradient, 55 °C ± 15). After 3 min incubation, aliquots were snap frozen in liquid nitrogen and thawed at 25 °C. Cell lysates were then centrifuged at 20,000 × g , 4 °C for 20 min. Supernatant were mixed with 5× loading buffer, heated to 70 °C for 5 min and analyzed by Western blotting essentially as previously described. For the CETSA performed with cell lysates, cells were directly harvested and lysed as described above. […]
Figure S4. […] Representative Western blots (A) and quantification (B) showing no obvious shifting melting temperatures (ΔT m) of endogenous KMT5A upon treatment with compound 7b compared to DMSO. […]
Representative Western blots (C) and quantification (D) showing no shifting melting temperatures (ΔT m) of endogenous KMT5A upon treatment with compound 8 compared to DMSO. […]

[2] = test system: HepG2 cells; experiment: Cell proliferation assay, HepG2; format: cell-based, human; conditions: vs DMSO
[3] = test system: H4K12me1 levels in PC-3 M prostate tumor cells; experiment: Western blot of cellular H4K12me1 levels; format: cell-based; conditions: PC-3 M cells, 10 μM, 3 days
Procedure: 7 Cellular activity of prodrug compound 8. (A) Levels of H4K12me1 in PC-3 M prostate tumor cells cultured in the presence of DMSO (−), 10 μM compound 8 or compound 8-N for 3 days were analyzed by Western blot using the indicated antibodies. Histone H4 was used as control. (B, C) Proliferation of Caco-2 cells treated with DMSO (Ctrl), compound 8, or compound 8-N were measured by Xcelligence. Data represent means ± s.d (n = 3). (D) Proliferation of HepG2 cells upon treatment of DMSO (Ctrl) and compound 8.
Experiments were performed as previously described. Histones used for Western blot analysis were extracted from cells as following: Cells were harvested, washed with PBS, resuspended in Triton Extraction Buffer (TEB; PBS, Triton ×100, 2 mM PMSF, 0.02% NaN3), stored 10 min on ice, centrifuged, and supernatant was discarded. After washing cells, a second time with TEB, pellets were resuspended in 0.2 N HCl and histones were acid-extracted overnight at 4 °C. Upon centrifugation for 10 min at 2000 rpm, supernatant was collected and protein concentration was determined. Three days before harvesting, cells were transfected with siRNA as indicated. The following antibodies were used: anti-KMT9α (#27630, lot 20062017, Schüle Lab), antihistone H4 (#ab10158, lot GR322677–1, Abcam), anti-H4K12me1 (#27429, lot 27062017, Schüle Lab).

[4] = target: T2, KMT5A (Homo sapiens, UniProt Q9NQR1); experiment: CETSA in HepG2 cells, KMT5A; format: cell-based; parameters: KMT5A upon treatment with compound 8 compared to DMSO; endogenous in cells; host or cells: HepG2
T2 sequence (Q9NQR1 1-393): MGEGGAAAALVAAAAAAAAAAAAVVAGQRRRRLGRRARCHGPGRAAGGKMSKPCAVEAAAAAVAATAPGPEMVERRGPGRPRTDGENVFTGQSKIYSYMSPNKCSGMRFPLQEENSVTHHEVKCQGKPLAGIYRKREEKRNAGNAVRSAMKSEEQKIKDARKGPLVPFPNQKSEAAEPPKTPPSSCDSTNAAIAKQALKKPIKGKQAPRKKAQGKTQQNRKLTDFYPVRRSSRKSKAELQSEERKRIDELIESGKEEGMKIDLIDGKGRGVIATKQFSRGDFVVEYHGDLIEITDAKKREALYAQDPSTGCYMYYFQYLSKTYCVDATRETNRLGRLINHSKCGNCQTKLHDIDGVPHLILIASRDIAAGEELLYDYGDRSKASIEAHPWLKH
Procedure: as §1
Figure S5. […] Representative Western blots (D) and quantification (E) showing increased melting temperatures (ΔT m) of endogenous KMT9a upon treatment with compound 8 compared to DMSO. […] Representative Western blots (F) and quantification (G) showing no obvious shifting melting temperatures (ΔT m) of endogenous KMT5A upon treatment with compound 8 compared to DMSO. […]

ΔTm at 15 µM [1]: 6.1 °C
ΔTm at 15 µM [4]: 0.1 °C
Structure (SMILES): CCOC(=O)[C@@H](N)CCN(CCCNCCc1ccc(Oc2ccc(Cl)cc2)c(F)c1)C[C@H]1C[C@@H](n2ccc3c(NC)ncnc32)[C@H](O)[C@@H]1O [compound 8, Ethyl (S)-2-amino-4-((3-((4-(4-chlorophenoxy)-3-fluorophenethyl)amino)propyl) (((1R,2R,3S,4R)-2,3-dihydroxy-4-(4-(methylamino)-7H-pyrrolo[2,3-d]pyrimidin-7-yl)cyclopentyl)methyl)amino)butanoate]
Proliferation of HepG2 cells [2]: did not affect cell proliferation
Levels of H4K12me1 [3]: reduced H4K12me1 levels
